Experimental findings from patent publication US20130317029A1 (PORTOLA PHARMACEUTICALS, INC., priority 2010, published 2013) are described below.

The target in the assay is T1, full length active recombinant SYK enzyme (Homo sapiens, UniProt P43405).
T1 construct: full length active recombinant SYK enzyme (Millipore, Calif.); purchased Millipore
Description: Inhibition of Syk tyrosine phosphorylation activity (LANCE TR-FRET kinase assay). It counts as biochemical. In short, it runs like this:
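Full-length active recombinant SYK (1 nM) phosphorylated biotinylated SYK-specific peptide (550 nM) with 100 μM ATP in 50 mM Tris pH 7.5, 5 mM MgCl2, 1 mM DTT, 3% DMSO, 1 h at room temperature. EDTA quench with Eu-anti-phosphotyrosine and SA-APC, 1 h TR-FRET read; IC50 by non-linear regression.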
For the compound `Cc1cc(C)cc(Nc2nc(NC3CC3)[nH]c(=O)c2C(N)=O)c1` [Example 60, 2-(cyclopropylamino)-4-(3,5-dimethylphenylamino)-6-oxo-1,6-dihydropyrimidine-5-carboxamide], the IC50 (in general, the concentration needed to halve the response being measured) is more than 1000 nM.
With `Cc1cc(C)cc(Nc2nc(Nc3ccc(S(N)(=O)=O)cc3)[nH]c(=O)c2C(N)=O)c1` [Example 61, 4-(4-(3,5-dimethylphenylamino)-5-carboxamide-6-oxo-1,6-dihydropyrimidin-2-ylamino)benzenesulfonamide], the half-inhibitory concentration (IC50) is 100 to 1000 nM.
On to `CC(=O)N1CCN(c2ccc(Nc3nc(NC4CC4)c(C(N)=O)c(=O)[nH]3)cc2)CC1` [Example 62, 2-(4-(4-acetylpiperazin-1-yl)phenylamino)-4-(cyclopropylamino)-6-oxo-1,6-dihydropyrimidine-5-carboxamide], for which the IC50 is more than 1000 nM.
With `Cc1cccc(Nc2nc(Nc3ccc(S(N)(=O)=O)cc3)nc(O)c2C(N)=O)c1` [Example 63, 4-(4-(3-methylphenylamino)-5-carboxamide-6-oxo-1,6-dihydropyrimidin-2-ylamino)benzenesulfonamide] the figure was 100 to 1000 nM; with `CC(=O)N1CCN(c2ccc(Nc3nc(O)c(C(N)=O)c(Nc4cccc(C)c4)n3)cc2)CC1` [Example 64, 4-(m-toluidino)-2-(4-(4-acetylpiperazin-1-yl)phenylamino)-6-hydroxypyrimidine-5-carboxamide], more than 1000 nM.
For the compound `COc1nc(NC2CCCCC2N)nc(Nc2cc(C)cc(C)c2)c1C(N)=O` (centres unmarked) [Example 65, 2-(2-aminocyclohexylamino)-4-(3,5-dimethylphenylamino)-6-methoxypyrimidine-5-carboxamide], the IC50 lay within 10 to 100 nM.
As to `COc1nc(N[C@H](C)C(N)=O)nc(Nc2cc(C)cc(C)c2)c1C(N)=O` [Example 66, (R)-2-(1-amino-1-oxopropan-2-ylamino)-4-(3,5-dimethylphenylamino)-6-methoxypyrimidine-5-carboxamide], the concentration for half-maximal inhibition (IC50) was 100 to 1000 nM.
Consider `COc1nc(N[C@H](CC(C)C)C(N)=O)nc(Nc2cc(C)cc(C)c2)c1C(N)=O` [Example 67, (R)-2-(1-amino-4-methyl-1-oxopentan-2-ylamino)-4-(3,5-dimethylphenylamino)-6-methoxypyrimidine-5-carboxamide], for which the IC50 lay within 100 to 1000 nM.
With `COc1nc(NC[C@H](C)N)nc(Nc2cc(C)cc(C)c2)c1C(N)=O` [Example 68, (S)-2-(2-aminopropylamino)-4-(3,5-dimethylphenylamino)-6-methoxypyrimidine-5-carboxamide] the figure was 100 to 1000 nM; with `COc1nc(Nc2ccc(N3CCN(C(C)=O)CC3)cc2)nc(NC2CC2)c1C(N)=O` [Example 69, 2-(4-(4-acetylpiperazin-1-yl)phenylamino)-4-(cyclopropylamino)-6-methoxypyrimidine-5-carboxamide], more than 1000 nM.
For `COc1nc(Nc2ccc(N3CCOCC3)cc2)nc(Nc2cccc(C)c2)c1C(N)=O` [Example 70, 4-(m-toluidino)-6-methoxy-2-(4-morpholinophenylamino)pyrimidine-5-carboxamide], the IC50 is more than 1000 nM.
For `COc1nc(N[C@@H](C(N)=O)c2ccccc2)nc(Nc2cccc(C)c2)c1C(N)=O` [Example 71, (R)-4-(m-toluidino)-2-(2-amino-2-oxo-1-phenylethylamino)-6-methoxypyrimidine-5-carboxamide], the 50% inhibitory concentration (IC50) was 100 to 1000 nM.
With `COc1nc(N[C@@H](C(N)=O)c2ccccc2)nc(Nc2cc(C)cc(C)c2)c1C(N)=O` [Example 72, (R)-2-(2-amino-2-oxo-1-phenylethylamino)-4-(3,5-dimethylphenylamino)-6-methoxypyrimidine-5-carboxamide] the figure was 100 to 1000 nM; with `COc1nc(Nc2ccc(N3CCOCC3)cc2)nc(NC2CC2)c1C(N)=O` [Example 73, 4-(cyclopropylamino)-6-methoxy-2-(4-morpholinophenylamino)pyrimidine-5-carboxamide], more than 1000 nM.
As for `COc1nc(Nc2ccc(N3CCN(C(C)=O)CC3)cc2)nc(Nc2cccc(C)c2)c1C(N)=O` [Example 74, 4-(m-toluidino)-2-(4-(4-acetylpiperazin-1-yl)phenylamino)-6-methoxypyrimidine-5-carboxamide], the IC50 was more than 1000 nM.
As for `CCNc1nc(Nc2cccc(C)c2)c(C(N)=O)c(OCCO)n1` [Example 75, 4-(m-toluidino)-2-(ethylamino)-6-(2-hydroxyethoxy)pyrimidine-5-carboxamide], the IC50 is more than 1000 nM.
With `CC[C@@H](Nc1nc(Nc2ccc3c(c2)OCO3)c(C(N)=O)c(=O)[nH]1)C(N)=O` [Example 76, (R)-2-(1-amino-1-oxobutan-2-ylamino)-4-(benzo[d][1,3]dioxol-5-ylamino)-6-oxo-1,6-dihydropyrimidine-5-carboxamide] the figure was 1 to 10 nM; with `COc1cccc(Nc2nc(N[C@H](CC(C)C)C(N)=O)[nH]c(=O)c2C(N)=O)c1` [Example 77, (R)-2-(1-amino-4-methyl-1-oxopentan-2-ylamino)-4-(3-methoxyphenylamino)-6-oxo-1,6-dihydropyrimidine-5-carboxamide], 1 to 10 nM; with `CC(C)C[C@@H](Nc1nc(Nc2ccc3c(c2)OCCO3)c(C(N)=O)c(=O)[nH]1)C(N)=O` [Example 78, (R)-2-(1-amino-4-methyl-1-oxopentan-2-ylamino)-4-(2,3-dihydrobenzo[b][1,4]dioxin-6-ylamino)-6-oxo-1,6-dihydropyrimidine-5-carboxamide], 1 to 10 nM.
With `CC(C)C[C@@H](Nc1nc(Nc2ccc3c(c2)OCO3)c(C(N)=O)c(=O)[nH]1)C(N)=O` [Example 79, (R)-2-(1-amino-4-methyl-1-oxopentan-2-ylamino)-4-(benzo[d][1,3]-dioxol-5-ylamino)-6-oxo-1,6-dihydropyrimidine-5-carboxamide] the figure was less than 1 nM.
Turning to `CC(C)C[C@@H](Nc1nc(Nc2cccc(-c3ncccc3F)c2)c(C(N)=O)c(=O)[nH]1)C(N)=O` [Example 80, (R)-2-(1-amino-4-methyl-1-oxopentan-2-ylamino)-6-oxo-4-(3-(3-fluoropyridin-2-yl)phenylamino)-1,6-dihydropyrimidine-5-carboxamide], the IC50 lay in the range of 1 to 10 nM.
Regarding `CC[C@@H](Nc1nc(Nc2cccc(-c3ncccc3F)c2)c(C(N)=O)c(=O)[nH]1)C(N)=O` [Example 81, (R)-2-(1-amino-1-oxobutan-2-ylamino)-6-oxo-4-(3-(3-fluoropyridin-2-yl)phenylamino)-1,6-dihydropyrimidine-5-carboxamide], the IC50 lay within 1 to 10 nM.
The value for `COc1ccc(Nc2nc(N[C@H](CC(C)C)C(N)=O)[nH]c(=O)c2C(N)=O)cc1OC` [Example 83, (R)-2-(1-amino-4-methyl-1-oxopentan-2-ylamino)-4-(3,4-dimethoxyphenylamino)-6-oxo-1,6-dihydropyrimidine-5-carboxamide] was less than 1 nM.
Take `CC[C@@H](Nc1nc(Nc2ccc3c(c2)OCCO3)c(C(N)=O)c(=O)[nH]1)C(N)=O` [Example 86, (R)-2-(1-amino-1-oxobutan-2-ylamino)-4-(2,3-dihydrobenzo[b][1,4]dioxin-6-ylamino)-6-oxo-1,6-dihydropyrimidine-5-carboxamide]: the IC50 lay in the range of 1 to 10 nM.
With `CC(C)C[C@@H](Nc1nc(Nc2cccc(OC(F)F)c2)c(C(N)=O)c(=O)[nH]1)C(N)=O` [Example 87, (R)-2-(1-amino-4-methyl-1-oxopentan-2-ylamino)-4-(3-(difluoromethoxy)phenylamino)-6-oxo-1,6-dihydropyrimidine-5-carboxamide], the concentration for half-maximal inhibition (IC50) was in the range of 1 to 10 nM.
Regarding `CC[C@@H](Nc1nc(Nc2cccc(OC(F)F)c2)c(C(N)=O)c(=O)[nH]1)C(N)=O` [Example 88, (R)-2-(1-amino-1-oxobutan-2-ylamino)-4-(3-(difluoromethoxy)phenylamino)-6-oxo-1,6-dihydropyrimidine-5-carboxamide], the IC50 lay in the range of 1 to 10 nM.
With `COc1ccc(Nc2nc(N[C@H](CC(C)C)C(N)=O)[nH]c(=O)c2C(N)=O)cc1` [Example 89, (R)-2-(1-amino-4-methyl-1-oxopentan-2-ylamino)-4-(4-methoxyphenylamino)-6-oxo-1,6-dihydropyrimidine-5-carboxamide] the figure was 1 to 10 nM; with `CC[C@@H](Nc1nc(Nc2ccc(OC)cc2)c(C(N)=O)c(=O)[nH]1)C(N)=O` [Example 90, (R)-2-(1-amino-1-oxobutan-2-ylamino)-4-(4-methoxyphenylamino)-6-oxo-1,6-dihydropyrimidine-5-carboxamide], 1 to 10 nM.
With `CC(C)C[C@@H](Nc1nc(Nc2ccc(OC(F)(F)F)cc2)c(C(N)=O)c(=O)[nH]1)C(N)=O` [Example 91, (R)-2-(1-amino-4-methyl-1-oxopentan-2-ylamino)-4-(4-(trifluoromethoxy)phenylamino)-6-oxo-1,6-dihydropyrimidine-5-carboxamide] the figure was 1 to 10 nM; with `CC[C@@H](Nc1nc(Nc2ccc(OC(F)(F)F)cc2)c(C(N)=O)c(=O)[nH]1)C(N)=O` [Example 92, (R)-2-(1-amino-1-oxobutan-2-ylamino)-4-(4-(trifluoromethoxy)phenylamino)-6-oxo-1,6-dihydropyrimidine-5-carboxamide], 1 to 10 nM.
With `COCCOc1ccc(Nc2nc(N[C@H](CC(C)C)C(N)=O)[nH]c(=O)c2C(N)=O)cc1` [Example 93, (R)-2-(1-amino-4-methyl-1-oxopentan-2-ylamino)-4-(4-(2-methoxyethoxy)phenylamino)-6-oxo-1,6-dihydropyrimidine-5-carboxamide] the figure was 1 to 10 nM.
As for `CC[C@@H](Nc1nc(Nc2ccc(OCCOC)cc2)c(C(N)=O)c(=O)[nH]1)C(N)=O` [Example 94, (R)-2-(1-amino-1-oxobutan-2-ylamino)-4-(4-(2-methoxyethoxy)phenylamino)-6-oxo-1,6-dihydropyrimidine-5-carboxamide], the IC50 lay in the range of 1 to 10 nM.
